Laboratory results: ChEMBL document CHEMBL3774337, “In vivo phase II-enzymes inducers, as potential chemopreventive agents, based on the chalcone and furoxan skeletons” (Bioorg Med Chem, 2016)
Calls of active or inactive are those of the source. The calls are words filed in the database; no cut-off is given here.

How the values were obtained:
[1] = Chemoprotective index, ratio of IC50 for mouse Hepa1c1c7 cells to CD for quinone reductase activity in mouse Hepa1c1c7 cells
[2] = Cytotoxicity against mouse mutant BpRc1 cells after 48 hrs by SRB assay; format: cell-based; settings: BPrc1, 48 h
[3] = organism: Mus musculus; experiment: Induction of quinone reductase specific activity in mouse Hepa1c1c7 cells assessed as concentration required to double enzyme specific activity using 2,6-DCIP as substrate measured for 1 min; format: cell-based
[4] = organism: Mus musculus; experiment: Ratio of induction of quinone reductase specific activity in mouse mutant BpRc1 cells to mouse Hepa1c1c7 cells; format: cell-based
[5] = organism: Mus musculus; experiment: Induction of quinone reductase specific activity in mouse mutant BpRc1 cells expressing defective translocator receptor Arnt using 2,6-DCIP as substrate at 10 uM measured for 1 min relative to control; format: cell-based
[6] = Chemoprotective index, ratio of IC50 for mouse mutant BpRc1 cells to CD for quinone reductase activity in mouse mutant BpRc1 cells
[7] = organism: Mus musculus; experiment: Induction of quinone reductase activity in mouse mutant BpRc1 cells using 2,6-DCIP as substrate measured for 1 min; format: cell-based
[8] = organism: Mus musculus; experiment: Induction of quinone reductase specific activity in mouse Hepa1c1c7 cells using 2,6-DCIP as substrate at 10 uM measured for 1 min relative to control; format: cell-based
[9] = organism: Mus musculus; experiment: Ratio of quinone reductase specific activity in mouse Hepa1c1c7 cells to quinone reductase specific activity in mouse mutant BpRc1 cells; format: cell-based
[10] = Cytotoxicity against mouse Hepa1c1c7 cells after 48 hrs by SRB assay; format: cell-based; settings: Hepa-1c1c7, 48 h
[11] = system: Rattus norvegicus; experiment: Induction of glutathione S-transferase activity in cytosolic fraction of Wistar rat liver at 15 mg/kg/day, po for two weeks using CDNB as substrate measured for 1 min relative to control; format: functional
[12] = system: Salmonella typhimurium; experiment: Mutagenicity in Salmonella typhimurium TA98 assessed as revertant colonies at 5 to 400 ug/plate by Ames test in absence of mouse liver S9 fraction; format: toxicity, organism-based; settings: salmonella enterica subsp. enterica serovar typhimurium
[13] = system: Rattus norvegicus; experiment: Induction of CYP450 activity in microsomal fraction of Wistar rat liver at 15 mg/kg/day, po for two weeks using 7-ethoxyresorufine as substrate measured for 5 mins relative to control; format: ADME, organism-based; settings: in vivo
[14] = system: Rattus norvegicus; experiment: Induction of glutathione S-transferase activity in cytosolic fraction of Wistar rat colon at 15 mg/kg/day, po for two weeks using CDNB as substrate measured for 1 min relative to control; format: functional
[15] = system: Rattus norvegicus; experiment: Toxicity in Wistar rat assessed as change in body weight at 15 mg/kg/day, po for two weeks; format: organism-based; settings: in vivo
[16] = Toxicity in Wistar rat assessed as survival at 15 mg/kg/day, po for two weeks; format: organism-based; settings: in vivo
[17] = system: Rattus norvegicus; experiment: Induction of quinone reductase activity in cytosolic fraction of Wistar rat liver at 15 mg/kg/day, po for two weeks using 2,6-DCIP as substrate measured for 1 min relative to control; format: functional
[18] = system: Salmonella typhimurium; experiment: Mutagenicity in Salmonella typhimurium TA98 assessed as revertant colonies at 5 to 400 ug/plate by Ames test in presence of mouse liver S9 fraction; format: toxicity, organism-based; settings: salmonella enterica subsp. enterica serovar typhimurium
[19] = system: Rattus norvegicus; experiment: Induction of quinone reductase activity in cytosolic fraction of Wistar rat colon at 15 mg/kg/day, po for two weeks using 2,6-DCIP as substrate at 10 uM measured for 1 min relative to control; format: functional
[20] = system: HT-29; experiment: Cytotoxicity against human HT-29 cells at 100 uM after 24 hrs by SRB assay; format: functional, cell-based
[21] = system: Rattus norvegicus; experiment: Toxicity in Wistar rat assessed as change in behaviors at 15 mg/kg/day, po for two weeks; format: organism-based; settings: in vivo
[22] = system: MCF7; experiment: Cytotoxicity against human MCF7 cells at 100 uM after 24 hrs by SRB assay; format: functional, cell-based
[23] = target: T1, Nuclear factor erythroid 2-related factor 2 (Mus musculus) (UniProt Q60795); experiment: Induction of Nrf2 nuclear translocation in mouse Hepa1c1c7 cells assessed as protein accumulation in nucleus at 20 uM by DAPI staining based immunofluorescence assay; format: cell-based
T1 sequence (whole entry): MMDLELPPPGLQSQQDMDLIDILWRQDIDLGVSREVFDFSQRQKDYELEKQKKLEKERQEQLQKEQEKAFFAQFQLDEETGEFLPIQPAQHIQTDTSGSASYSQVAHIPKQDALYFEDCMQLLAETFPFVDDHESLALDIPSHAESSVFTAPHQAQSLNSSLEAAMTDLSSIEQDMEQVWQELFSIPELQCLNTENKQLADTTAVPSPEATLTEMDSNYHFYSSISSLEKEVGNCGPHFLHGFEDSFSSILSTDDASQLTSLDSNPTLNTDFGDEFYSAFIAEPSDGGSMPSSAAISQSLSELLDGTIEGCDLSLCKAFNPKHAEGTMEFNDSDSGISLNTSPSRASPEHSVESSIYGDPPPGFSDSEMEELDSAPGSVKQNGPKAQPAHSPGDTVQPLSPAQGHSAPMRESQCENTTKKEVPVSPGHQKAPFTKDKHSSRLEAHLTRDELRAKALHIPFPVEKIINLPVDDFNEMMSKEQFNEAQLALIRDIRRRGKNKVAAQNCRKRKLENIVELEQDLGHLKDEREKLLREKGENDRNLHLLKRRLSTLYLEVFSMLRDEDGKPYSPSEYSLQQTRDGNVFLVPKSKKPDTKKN

[24] = system: Rattus norvegicus; experiment: Induction of CYP450 activity in microsomal fraction of Wistar rat colon at 15 mg/kg/day, po for two weeks using 7-ethoxyresorufine as substrate measured for 5 mins; format: ADME, organism-based; settings: in vivo
[25] = system: Salmonella typhimurium; experiment: Mutagenicity in Salmonella typhimurium TA98 assessed as revertant colonies at 2 to 167 ug/plate by Ames test in presence of mouse liver S9 fraction; format: toxicity, organism-based; settings: salmonella enterica subsp. enterica serovar typhimurium
[26] = system: Salmonella typhimurium; experiment: Mutagenicity in Salmonella typhimurium TA98 assessed as revertant colonies at 2 to 167 ug/plate by Ames test in absence of mouse liver S9 fraction; format: toxicity, organism-based; settings: salmonella enterica subsp. enterica serovar typhimurium

SMILES | Ratio [1] | IC50 [2] [µM] | CD [3] [µM] | Ratio [4] | fold change (FC) [5] | Ratio [6] | CD [7] [µM] | fold change (FC) [8] | Ratio [9] | IC50 [10] [µM] | Activity [15] | survival at 2 weeks [16] [%] | Activity [17] | Activity [21] | also measured
O=c1cc(-c2ccc(Br)cc2)oc2ccccc12 | 107 | 150 | 0.79 | 100 | 1.49 | 1.9 | 80 | 4.45 | 2.99 | 85 |  |  |  |  | 
O=C(/C=C/c1c(-c2ccccc2)no[n+]1[O-])c1ccccc1 | 3 | 38 | 12 | 1.1 | 1.58 | 2.9 | 13 | 1.9 | 1.2 | 36 | Non-toxic | 100 | 110% | Non-toxic | Activity [11]: 180%; Activity [12]: Non-toxic; Activity [13]: 60%; Activity [14]: 13%; Activity [18]: Non-toxic; Activity [19]: 12%; Activity [20]: Active; Activity [22]: Active; Activity [23]: Active; Activity [24]: Not Active
O=C(/C=C/c1ccc2c(c1)no[n+]2[O-])c1ccccc1 |  |  |  |  | 1.7 |  |  | 1.01 | 0.59 |  |  |  |  |  | Activity [25]: Non-toxic; Activity [20]: Active; Activity [22]: Active; Activity [26]: Toxic
COc1ccc(/C=C/C(=O)c2ccccc2)cc1 [4-METHOXY CHALCONE] |  |  |  |  |  |  |  |  |  |  | Non-toxic | 100 | Active | Non-toxic | 
CC(C)(C)c1cc(O)ccc1O [E319] | 147 | 60 | 1 | 6 |  | 10 | 6 |  |  | 147 |  |  |  |  | Activity [23]: Active
O=C(/C=C/c1ccc(Br)cc1)c1ccccc1O |  |  |  |  |  |  |  |  |  |  | Non-toxic | 100 | 128% | Non-toxic | 
O=C(/C=C/c1ccccc1)c1ccccc1O [2'-HYDROXYCHALCONE] |  |  |  |  |  |  |  |  |  |  | Non-toxic | 100 | Active | Non-toxic | Activity [11]: Active
